For four compounds, Ki and Ratio Ki results are on record in ChEMBL document CHEMBL4814065, “Taurultams incorporating arylsulfonamide: First in vitro inhibition studies of α-, β- and γ-class Carbonic Anhydrases from Vibrio cholerae and Burkholderia pseudomallei” (Eur J Med Chem, 2021).

A value given as a limit tells only on which side of the number the result lay.

Test [1] is described as follows: Inhibition of Burkholderia pseudomallei gamma carbonic anhydrase preincubated with enzyme for 15 mins by phenol red-based stopped-flow CO2 hydration assay.
Test [2] in a line: Inhibition of Vibrio cholerae gamma carbonic anhydrase preincubated with enzyme for 15 mins by phenol red-based stopped-flow CO2 hydration assay.
Test [3] can be described thus: Inhibition of Burkholderia pseudomallei beta carbonic anhydrase preincubated with enzyme for 15 mins by phenol red-based stopped-flow CO2 hydration assay.
Test [4] can be described thus: Inhibition of Vibrio cholerae alpha carbonic anhydrase preincubated with enzyme for 15 mins by phenol red-based stopped-flow CO2 hydration assay.
Test [5] is described as follows: Inhibition of Vibrio cholerae beta carbonic anhydrase preincubated with enzyme for 15 mins by phenol red-based stopped-flow CO2 hydration assay.
Test [6] in a line: Selectivity index, ratio of Ki for Vibrio cholerae alpha carbonic anhydrase to Ki for human carbonic anhydrase 2.
Test [7] is described as follows: Selectivity index, ratio of Ki for Burkholderia pseudomallei beta carbonic anhydrase to Ki for human carbonic anhydrase 2.
Test [8] in a line: Selectivity index, ratio of Ki for Vibrio cholerae gamma carbonic anhydrase to Ki for human carbonic anhydrase 2.
A short description of test [9]: Selectivity index, ratio of Ki for Burkholderia pseudomallei gamma carbonic anhydrase to Ki for human carbonic anhydrase 2.
Test [10] can be described thus: Selectivity index, ratio of Ki for Vibrio cholerae beta carbonic anhydrase to Ki for human carbonic anhydrase 2.

`NS(=O)(=O)c1ccc(N2CN(Cc3c(F)c(F)c(F)c(F)c3F)CCS2(=O)=O)cc1`: the inhibitory constant (Ki) in test [1] is 824 nM; in test [2], 8110 nM; in test [3], 81.8 nM; in [4], 8.5 nM; in test [5], 4440 nM.

For `NS(=O)(=O)c1ccc(CCN2CN(Cc3c(F)cccc3F)CCS2(=O)=O)cc1`, the Ki in test [1] was determined as 19.5 nM; in test [2], 8820 nM; in test [3], 393 nM; in [4], 8 nM; in test [5], 952 nM. Moreover, the Ratio Ki in test [6] came to 0.14; in test [7], 7; in [8], 156; in test [9], 0.3; in test [10], 16.9.

Regarding `NS(=O)(=O)c1ccc(N2CCCCS2(=O)=O)cc1`, the Ki in test [1] is > 50000 nM.

In the case of `NS(=O)(=O)c1ccc(N2CN(Cc3cccc(Cl)c3)CCS2(=O)=O)cc1`, the Ki in [1] amounted to 68.7 nM; in test [2] it was 6770 nM; in [3], 416 nM; in test [4], 37.7 nM; in test [5] it was 3970 nM.
